According to PMC6968641, “N-monoarylacetothioureas as potent urease inhibitors: synthesis, SAR, and biological evaluation” (Journal of Enzyme Inhibition and Medicinal Chemistry, 2019):
In brackets after ≈: the same amount, converted by molar mass. Like-named read-outs stand apart in the source and are kept apart here.

Columns and labels:
[1] = tested on: H. pylori; test: Minimum inhibitory concentration, broth microdilution (CLSI); format: cell-based, Helicobacter pylori (ATCC 43504)
Method: H. pylori (ATCC 43504; […] The minimum inhibitory concentration (MIC) values were determined using the broth microdilution protocol according to the methods of the Clinical and Laboratory Standards Institute (CLSI)[21].

[2] = molecular target: T1, urease in intact H. pylori cell (Helicobacter pylori, UniProt P69996); test: Urease inhibition in intact H. pylori cell (indophenol method); format: cell-based
T1 construct: H. pylori urease was replaced by 25 µL of cell suspension (4.0 × 10^7 CFU/mL); endogenous in cells; host or cells: intact H. pylori ATCC 43504 cells

[3] = molecular target: T2, H. pylori urease (Helicobacter pylori, UniProt P69996); test: Urease inhibition, extracted H. pylori urease (indophenol method); format: biochemical; details: for IC50: extracted H. pylori urease
T2 construct: endogenous in cells; host or cells: H. pylori ATCC 43504; sonicated, supernatant desalted on Sephadex G-25 (crude extract)
Method: For urease inhibition assays, 50 mL broth cultures (2.0 × 10^8 CFU/mL) were centrifuged (5000×g, 4 °C) to collect the bacteria, and after washing twice with phosphate-buffered saline (pH 7.4), the H. pylori precipitation was stored at –80 °C for 8 h, and then was returned to room temperature, and after addition of 3 mL of distilled water and protease inhibitors, sonication was performed for 60 s. Following centrifugation (15,000×g, 4 °C), the supernatant was desalted through Sephadex G-25 column (PD-10 columns, Amersham Pharmacia Biotech, Uppsala, Sweden). The resultant crude urease solution was added to an equal volume of glycerol and stored at 4 °C until use in the experiment.
Urease activity was determined in the 96-well assay plate by measuring ammonia production using the indophenol method as described by Weatherburn[20]. Briefly, to each well, 50 µL of urea (10 mM) in phosphate buffer solution was added in a mixture of 25 µL (10 U) of H. pylori urease and 25 µL of the test compound, which was incubated at 37 °C for 0.5 h. Fifty µL of phenol reagent (containing 127 mM phenol and 0.168 mM sodium nitroprusside) and 50 µL of alkali reagent (containing 125 mM NaOH and 0.168 mM NaOCl) were added in turn. The resulted mixture was incubated at 37 °C for another 0.5 h for colouration developing. The increasing absorbance was measured at 630 nm after 50 min using a microplate reader (Molecular Devices, San Jose, CA). Percentage inhibitions were calculated from the following formula (Equation (1)). Experiments were performed in triplicate and AHA was used as reference drug, and the IC50 value was determined as the concentration of compound that give 50% inhibition of maximal activity. As for the urease assay of intact cells, 25 µL (10 U) of H. pylori urease was replaced by 25 µL of cell suspension (4.0 × 10^7 CFU/mL).

[4] = molecular target: T3, Jack bean urease (Canavalia ensiformis, UniProt P07374); test: Ligand affinity by surface plasmon resonance (SPR); format: binding; details: for kon: pH 7.4; for koff: pH 7.4, SPR, immobilised urease, PBS pH 7.4
T3 construct: purchased
Method: The binding kinetics of selected compounds were assayed via surface plasmon resonance (SPR) using an OPEN SPR instrument (Nicoya Lifesciences, Kitchener, Canada). First, urease dissolved (50 µg/mL) in PBS buffer (1 mM KH2PO4, 155 mM NaCl, 3 mM Na2HPO4-12H2O, pH 7.4), was immobilised to a CM5 chip using a standard amine coupling procedure. Then, SPR measurements were carried out in PBS, and stock solutions were diluted in the same buffer. Data were collected with OpenSPR control software. Experiments were performed by monitoring the refractive index changes as a function of time under constant flow rate of 20 µL/min. The relative amount of inhibitor bound to the urease was determined by measuring the net increase in refractive index over time compared to control running buffer. There is an inline subtraction of reference surface during the run. This change is usually reported in response units (RU). Sensograms were processed and analysed using TraceDrawer software. The binding curves were fit to determine the equilibrium dissociation constant (KD).
In the present paper, the pure Jack bean urease from commercial was used for this assay because of non-availability of pure H. pylori urease. […] For efficient and tight ligand binding, the rate constant koff is of particular interest, because koff has a potential to differentiate indistinguishable compounds with similar affinities.

[5] = Cytotoxicity MTT assay, L-02; format: cell-based; details: human, L-02 cells (normal hepatic cell line), 25 μg/mL
Method: (§1) The stock solutions of the selected compounds (250 µg/mL, in PBS) were prepared in medium. L-02 cells and P69 cells were grown in medium (90% RPMI-1640 medium, 10% foetal bovine serum, 1% penicillin/streptomycin) and maintained at 37 °C in a humidified atmosphere containing 5% CO2, respectively. Cells were seeded in 96-well cell culture plates. On the day when seeding, the cells were exposed to 250 µg/mL of compounds and further cultured for 72 h at 37 °C. Cell proliferation was then determined using the thiazolyl blue tetrazolium bromide (MTT) assay.

[6] = Cytotoxicity MTT assay, P69; format: cell-based; details: human, P69 cells (normal prostate cell line), 25 μg/mL
Method: as §1

[7] = molecular target: T3, Jack bean urease; test: Enzyme kinetic study (indophenol method); format: biochemical; details: for Type of inhibition: Jack bean urease; for Ki': dissociation constant of urease-urea-inhibitor complex
Method: Based on the indophenol method, the velocity of ammonia production (V) was measured in the presence of concentration gradients of urea ([S]) for every specific concentration of selected compounds ([I]). Nonlinear fitting curves to data of V and [S] were used to determine the type of enzyme inhibition based on the general kinetics equation (Equation (1)). Subsequently, the resulted fitting constants ( Km/Vmax(1+[I]/Ki) or 1/Vmax(1+[I]/Ki′) ) and [I] were linearly fitted to give kinetic parameters Ki and Ki', respectively. The experimental assay was performed against a pure urease (Jack bean urease) for the consideration of precision. (1) V=Vmax[S]/Km(1+[I]/Ki)+(1+[I]/K^′i)[S]
Mazzei et al. confirmed that urease shared the mechanism of catalysis and inhibition regardless of the biological sources[27]^,[28]. For excluding the possible interference, a pure urease (Jack bean urease) was therefore used for kinetic assays. As an example, Figure 2 describes the preincubation-time dependence of urease inhibition by b19. The suppressed urease activity maintained at relatively constant values with the increasing preincubation time under different concentrations of b19, resulting in nearly equal IC50 values.
Similarly, kinetic parameters ( Ki and Ki' ) and inhibition types of other compounds were also determined and are shown in Table 3.

[8] = Helicobacter pylori, pH=4.0, read-out: MIC pH=4.0
[9] = Helicobacter pylori, pH=7.0, read-out: MIC pH=7.0

T3 sequence (P07374 whole entry, looked up): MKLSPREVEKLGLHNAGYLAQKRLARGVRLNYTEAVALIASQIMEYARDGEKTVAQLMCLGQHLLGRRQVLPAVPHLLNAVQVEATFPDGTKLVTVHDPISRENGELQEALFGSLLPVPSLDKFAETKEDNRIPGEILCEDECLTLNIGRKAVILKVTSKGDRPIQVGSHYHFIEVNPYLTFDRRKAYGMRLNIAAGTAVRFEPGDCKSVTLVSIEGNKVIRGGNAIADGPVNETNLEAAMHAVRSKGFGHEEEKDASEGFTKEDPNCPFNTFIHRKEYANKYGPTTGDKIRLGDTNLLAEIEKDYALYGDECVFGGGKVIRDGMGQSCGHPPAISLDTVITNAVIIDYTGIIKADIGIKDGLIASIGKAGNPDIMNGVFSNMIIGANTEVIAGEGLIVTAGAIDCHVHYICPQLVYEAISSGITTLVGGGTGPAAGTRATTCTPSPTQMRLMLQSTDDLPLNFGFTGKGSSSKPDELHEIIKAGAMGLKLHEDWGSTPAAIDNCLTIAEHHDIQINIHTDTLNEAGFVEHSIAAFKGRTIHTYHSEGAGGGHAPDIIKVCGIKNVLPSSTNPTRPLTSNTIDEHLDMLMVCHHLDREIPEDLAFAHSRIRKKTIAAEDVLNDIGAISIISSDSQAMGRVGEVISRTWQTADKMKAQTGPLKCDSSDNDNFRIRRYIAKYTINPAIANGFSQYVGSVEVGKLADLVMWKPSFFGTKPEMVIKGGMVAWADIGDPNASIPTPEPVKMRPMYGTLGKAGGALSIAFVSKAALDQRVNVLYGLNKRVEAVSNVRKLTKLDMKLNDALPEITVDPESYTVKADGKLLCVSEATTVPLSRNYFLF
T1 sequence (P69996 whole entry): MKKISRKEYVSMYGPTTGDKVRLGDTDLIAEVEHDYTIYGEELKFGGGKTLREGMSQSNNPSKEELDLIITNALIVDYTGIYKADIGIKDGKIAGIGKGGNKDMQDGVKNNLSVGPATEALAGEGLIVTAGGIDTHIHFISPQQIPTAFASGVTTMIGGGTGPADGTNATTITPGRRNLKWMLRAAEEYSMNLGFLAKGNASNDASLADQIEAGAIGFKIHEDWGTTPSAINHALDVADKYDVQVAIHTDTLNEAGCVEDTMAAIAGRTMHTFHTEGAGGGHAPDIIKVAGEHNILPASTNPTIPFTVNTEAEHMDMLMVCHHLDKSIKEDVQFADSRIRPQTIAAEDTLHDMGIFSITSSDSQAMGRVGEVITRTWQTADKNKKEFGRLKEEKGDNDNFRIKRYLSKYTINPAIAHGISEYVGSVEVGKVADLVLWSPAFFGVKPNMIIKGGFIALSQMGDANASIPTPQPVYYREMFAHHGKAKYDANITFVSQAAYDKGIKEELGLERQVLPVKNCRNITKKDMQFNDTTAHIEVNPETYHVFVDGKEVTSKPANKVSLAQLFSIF
T1 sequence (P14916 whole entry, further chain): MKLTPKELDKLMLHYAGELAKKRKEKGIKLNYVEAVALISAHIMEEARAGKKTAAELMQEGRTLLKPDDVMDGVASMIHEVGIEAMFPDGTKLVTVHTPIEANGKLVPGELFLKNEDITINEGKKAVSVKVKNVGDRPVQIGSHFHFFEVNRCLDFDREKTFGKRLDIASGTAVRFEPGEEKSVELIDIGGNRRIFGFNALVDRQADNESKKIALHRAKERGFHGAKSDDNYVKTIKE
T2 sequence (P14916 whole entry): as the sequence (P14916 whole entry, further chain) above
T2 sequence (P69996 whole entry): as the sequence (P69996 whole entry) above

## CC(=O)NO [AHA, acetohydroxamic acid, reference compound]
[1]; pH=4.0, read-out: MIC pH=4.0
  MIC: 16.0 µM (≈ 1.2 µg/mL)
[1]; pH=7.0, read-out: MIC pH=7.0
  MIC: >64.0 µM
[2]; intact H. pylori cell suspension, read-out: IC50 Urease in intact cell
  IC50: 171 ± 9 µM
[3]; read-out: IC50 Extracted urease
  IC50: 27.2 ± 0.7 µM

## NC(=S)NC(=O)Cc1cccc(Br)c1 [b2]
other
  melting point: 207.4 to 208.8 °C
[3]; IC50 Extracted urease
  IC50: 58.4 ± 4.3 µM

## NC(=S)NC(=O)Cc1ccc(Cl)c(Cl)c1 [b3]
other
  melting point: 202.1 to 203.4 °C
[3]; IC50 Extracted urease
  IC50: 63 ± 4.6 µM

## NC(=S)NC(=O)Cc1cccc(O)c1 [b4]
other
  melting point: 160.3 to 161.5 °C
[1]; [8]
  MIC: 64 µM (≈ 13.5 µg/mL)
[1]; [9]
  MIC: > 64 µM
[2]
  IC50: 108 ± 6.1 µM
[4]
  Kd: 0.644 ± 0.0092 µM
  kon: 60800 M⁻¹ s⁻¹
  koff: 0.0389 s⁻¹
[3]; IC50 Extracted urease
  IC50: 16.3 ± 0.3 µM
[5]
  viability at 72 h, 25 µg/mL: 93.7%
[6]
  viability at 72 h, 25 µg/mL: 88.1%
[7]
  Ki: 4.34 µM
  Type of inhibition: Reversible
  Ki': 8.52 µM

## COc1cccc(CC(=O)NC(N)=S)c1 [b5]
other
  melting point: 184.5 to 186.1 °C
[3]; IC50 Extracted urease
  IC50: 75.8 ± 5.7 µM

## NC(=S)NC(=O)Cc1ccccc1F [b6]
other
  melting point: 157.2 to 159 °C
[3]; IC50 Extracted urease
  IC50: 41.9 ± 2.5 µM

## NC(=S)NC(=O)Cc1cccc(Cl)c1 [b7]
other
  melting point: 136.6 to 137.4 °C
[3]; IC50 Extracted urease
  IC50: 63.6 ± 5.1 µM
[3]; ratio of IC50 values vs b19
  fold decrease in potency relative to b19, extracted urease: 397 fold

## NC(=S)NC(=O)Cc1ccc(O)cc1 [b8]
other
  melting point: 177.1 to 178.3 °C
[1]; [8]
  MIC: 8 µM (≈ 1.68 µg/mL)
[1]; [9]
  MIC: 64 µM (≈ 13.5 µg/mL)
[2]
  IC50: 52.5 ± 3.9 µM
[4]
  Kd: 0.311 ± 0.0103 µM
  kon: 9.38e+06 M⁻¹ s⁻¹
  koff: 0.00292 s⁻¹
[3]; IC50 Extracted urease
  IC50: 9.93 ± 0.9 µM
[5]
  viability at 72 h, 25 µg/mL: 92.1%
[6]
  viability at 72 h, 25 µg/mL: 94.6%
[7]
  Ki: 2.54 µM
  Type of inhibition: Reversible
  Ki': 11.3 µM

## NC(=S)NC(=O)Cc1cccc(C(F)(F)F)c1 [b9]
other
  melting point: 204.3 to 205.8 °C
[3]; IC50 Extracted urease
  IC50: 136 ± 7 µM

## COc1ccc(CC(=O)NC(N)=S)cc1OC [b10]
other
  melting point: 146.3 to 147.6 °C
[2]
  IC50: 207 ± 16 µM
[3]; IC50 Extracted urease
  IC50: 24.2 ± 0.6 µM
[5]
  viability at 72 h, 25 µg/mL: 108%
[6]
  viability at 72 h, 25 µg/mL: 95.3%

## COc1ccc(CC(=O)NC(N)=S)cc1 [b11]
other
  melting point: 143.5 to 144.7 °C
[1]; [8]
  MIC: 32 µM (≈ 7.18 µg/mL)
[1]; [9]
  MIC: > 64 µM
[2]
  IC50: 98.3 ± 5.9 µM
[4]
  Kd: 0.667 ± 0.0137 µM
  kon: 572000 M⁻¹ s⁻¹
  koff: 0.0381 s⁻¹
[3]; IC50 Extracted urease
  IC50: 16.3 ± 1.2 µM
[5]
  viability at 72 h, 25 µg/mL: 97%
[6]
  viability at 72 h, 25 µg/mL: 87.5%
[7]
  Ki: 3.94 µM
  Type of inhibition: Reversible
  Ki': 12.7 µM

## NC(=S)NC(=O)Cc1ccc(Br)cc1 [b12]
other
  melting point: 174.9 to 176.2 °C
[2]
  IC50: 189 ± 18 µM
[3]; IC50 Extracted urease
  IC50: 22.9 ± 0.4 µM
[5]
  viability at 72 h, 25 µg/mL: 91.5%
[6]
  viability at 72 h, 25 µg/mL: 89.4%

## NC(=S)NC(=O)Cc1ccccc1Cl [b13]
other
  melting point: 148.8 to 151.2 °C
[3]; IC50 Extracted urease
  IC50: 54.2 ± 4.8 µM

## NC(=S)NC(=O)Cc1cccc(F)c1 [b14]
other
  melting point: 126 to 127.4 °C
[3]; IC50 Extracted urease
  IC50: 50.3 ± 3.5 µM
